# In the supplement of paper PMC10307832:
# Assays:
# Assay in all cases: relative viability (nuclei count vs DMSO), 5 days (fraction); higher = more cells survive
# [1] = test system: 201T
# Procedure, shortened: (§1)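 After 5 days of treatment, lung cancer cells in 1536-well plates were fixed and stained in a single step (final 0.05% Triton X-100, 1% formaldehyde, 1 ug/ml Hoechst) and their nuclei counted on 4× images. Treatment had been applied by pin tool the day after seeding as one drug alone or as a fixed anchor-drug dose with five library-drug doses (not always all listed) in √10 steps. Relative viability is the nuclei count of treated wells divided by that of vehicle wells, and values are medians of duplicate plates.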
# [2] = test system: NCI-H358
# Procedure, shortened: as §1
# [3] = test system: BEN
# Procedure, shortened: as §1
# [4] = test system: NCI-H2087
# Procedure, shortened: as §1
# [5] = test system: NCI-H2126
# Procedure, shortened: as §1
# [6] = test system: EKVX
# Procedure, shortened: as §1
# [7] = test system: NCI-H441
# Procedure, shortened: as §1
# [8] = test system: EMC-BAC-2
# Procedure, shortened: as §1
# [9] = test system: COR-L23
# Procedure, shortened: as §1
# [10] = test system: NCI-H1650
# Procedure, shortened: as §1
# [11] = test system: EPLC-272H
# Procedure, shortened: as §1
# [12] = test system: NCI-H1915
# Procedure, shortened: as §1
# [13] = test system: LCLC-103H
# Procedure, shortened: as §1
# [14] = test system: NCI-H1651
# Procedure, shortened: as §1
# [15] = test system: NCI-H2347
# Procedure, shortened: as §1
# [16] = test system: NCI-H596
# Procedure, shortened: as §1
# [17] = test system: HCC-44
# Procedure, shortened: as §1
# [18] = test system: SW 1573
# Procedure, shortened: as §1
# [19] = test system: LK-2
# Procedure, shortened: as §1
# [20] = test system: NCI-H1793
# Procedure, shortened: as §1
# [21] = test system: HCC-827
# Procedure, shortened: as §1
# [22] = test system: LXF-289
# Procedure, shortened: as §1
# [23] = test system: A-427
# Procedure, shortened: as §1
# [24] = test system: NCI-H460
# Procedure, shortened: as §1
# [25] = test system: SW 900
# Procedure, shortened: as §1
compound,measurement,setting,value
CCCCCCCCCCCC1=C(O)C(=O)C=C(O)C1=O [Embelin] + CCNC(=O)c1noc(-c2cc(C(C)C)c(O)cc2O)c1-c1ccc(CN2CCOCC2)cc1 [Luminespib] (partner 0.01 µM),relative viability,[1]; first compound 0.08 µM,0.987
same,relative viability,[1]; first compound 0.8 µM,1.08
same,relative viability,[1]; first compound 2.53 µM,1.06
same,relative viability,[1]; first compound 8 µM,1.09
same,relative viability,[2]; first compound 0.08 µM,0.464
same,relative viability,[2]; first compound 0.8 µM,0.447
same,relative viability,[2]; first compound 2.53 µM,0.44
same,relative viability,[2]; first compound 8 µM,0.306
same,relative viability,[3]; first compound 0.08 µM,0.29
same,relative viability,[3]; first compound 0.8 µM,1.12
same,relative viability,[3]; first compound 2.53 µM,0.435
same,relative viability,[3]; first compound 8 µM,0.517
same,relative viability,[4]; first compound 0.08 µM,0.162
same,relative viability,[4]; first compound 0.8 µM,0.186
same,relative viability,[4]; first compound 2.53 µM,0.141
same,relative viability,[4]; first compound 8 µM,0.172
same,relative viability,[5]; first compound 0.08 µM,0.838
same,relative viability,[5]; first compound 0.8 µM,1.01
same,relative viability,[5]; first compound 2.53 µM,0.965
same,relative viability,[5]; first compound 8 µM,0.927
same,relative viability,[6]; first compound 0.08 µM,0.864
same,relative viability,[6]; first compound 0.8 µM,0.888
same,relative viability,[6]; first compound 2.53 µM,0.876
same,relative viability,[6]; first compound 8 µM,0.966
same,relative viability,[7]; first compound 0.08 µM,0.32
same,relative viability,[7]; first compound 0.8 µM,0.294
same,relative viability,[7]; first compound 2.53 µM,0.332
same,relative viability,[7]; first compound 8 µM,0.33
same,relative viability,[8]; first compound 0.08 µM,1.14
same,relative viability,[8]; first compound 0.8 µM,1.38
same,relative viability,[8]; first compound 2.53 µM,1.22
same,relative viability,[8]; first compound 8 µM,1.29
same,relative viability,[9]; first compound 0.08 µM,0.773
same,relative viability,[9]; first compound 0.8 µM,0.73
same,relative viability,[9]; first compound 2.53 µM,0.911
same,relative viability,[9]; first compound 8 µM,0.763
same,relative viability,[10]; first compound 0.08 µM,0.16
same,relative viability,[10]; first compound 0.8 µM,0.196
same,relative viability,[10]; first compound 2.53 µM,0.212
same,relative viability,[10]; first compound 8 µM,0.185
same,relative viability,[11]; first compound 0.08 µM,0.69
same,relative viability,[11]; first compound 0.8 µM,0.222
same,relative viability,[11]; first compound 2.53 µM,0.253
same,relative viability,[11]; first compound 8 µM,0.266
same,relative viability,[12]; first compound 0.08 µM,0.818
same,relative viability,[12]; first compound 0.8 µM,0.819
same,relative viability,[12]; first compound 2.53 µM,0.853
same,relative viability,[12]; first compound 8 µM,0.892
same,relative viability,[13]; first compound 0.08 µM,1
same,relative viability,[13]; first compound 0.8 µM,1.03
same,relative viability,[13]; first compound 2.53 µM,1.14
same,relative viability,[13]; first compound 8 µM,0.926
same,relative viability,[14]; first compound 0.08 µM,0.953
same,relative viability,[14]; first compound 0.8 µM,0.944
same,relative viability,[14]; first compound 2.53 µM,0.977
same,relative viability,[14]; first compound 8 µM,0.886
same,relative viability,[15]; first compound 0.08 µM,0.73
same,relative viability,[15]; first compound 0.8 µM,0.489
same,relative viability,[15]; first compound 2.53 µM,0.686
same,relative viability,[15]; first compound 8 µM,0.62
same,relative viability,[16]; first compound 0.08 µM,1.05
same,relative viability,[16]; first compound 0.8 µM,0.795
same,relative viability,[16]; first compound 2.53 µM,1.43
same,relative viability,[16]; first compound 8 µM,0.904
same,relative viability,[17]; first compound 0.08 µM,1.04
same,relative viability,[17]; first compound 0.8 µM,1.1
same,relative viability,[17]; first compound 2.53 µM,1.37
same,relative viability,[17]; first compound 8 µM,0.852
same,relative viability,[18]; first compound 0.08 µM,0.256
same,relative viability,[18]; first compound 0.8 µM,0.341
same,relative viability,[18]; first compound 2.53 µM,0.252
same,relative viability,[18]; first compound 8 µM,0.216
same,relative viability,[19]; first compound 0.08 µM,0.17
same,relative viability,[19]; first compound 0.8 µM,0.281
same,relative viability,[19]; first compound 2.53 µM,0.189
same,relative viability,[19]; first compound 8 µM,0.198
same,relative viability,[20]; first compound 0.08 µM,0.175
same,relative viability,[20]; first compound 0.8 µM,0.192
same,relative viability,[20]; first compound 2.53 µM,0.207
same,relative viability,[20]; first compound 8 µM,0.186
same,relative viability,[21]; first compound 0.08 µM,0.857
same,relative viability,[21]; first compound 0.8 µM,0.885
same,relative viability,[21]; first compound 2.53 µM,0.864
same,relative viability,[21]; first compound 8 µM,0.657
same,relative viability,[22]; first compound 0.08 µM,0.548
same,relative viability,[22]; first compound 0.8 µM,0.619
same,relative viability,[22]; first compound 2.53 µM,0.781
same,relative viability,[22]; first compound 8 µM,0.751
same,relative viability,[23]; first compound 0.08 µM,0.976
same,relative viability,[23]; first compound 0.8 µM,0.998
same,relative viability,[23]; first compound 2.53 µM,0.966
same,relative viability,[23]; first compound 8 µM,1.18
same,relative viability,[24]; first compound 0.08 µM,0.0322
same,relative viability,[24]; first compound 0.8 µM,0.0396
same,relative viability,[24]; first compound 2.53 µM,0.0367
same,relative viability,[24]; first compound 8 µM,0.029
same,relative viability,[25]; first compound 0.08 µM,0.196
same,relative viability,[25]; first compound 0.8 µM,0.138
same,relative viability,[25]; first compound 2.53 µM,0.188
same,relative viability,[25]; first compound 8 µM,0.18
